PubChem BioAssay AID1259407 (Chemical Carcinogenesis Research Information System (CCRIS), 2018)
Activity calls are given as the source filed them. How the calls were made is not given here.

System: CCRIS mutagenicity, Ames/micronucleus/aberration tests
Assay: CCRIS mutagenicity studies
Source text: The CCRIS database contains chemical records with carcinogenicity, mutagenicity, tumor promotion, and tumor inhibition test results. It was developed by the National Cancer Institute (NCI). Data are derived from studies cited in primary journals, current awareness tools, NCI reports, and other sources. Test results have been reviewed by experts in carcinogenesis and mutagenesis.
CCRIS provides historical information from the years 1985 - 2011. It is no longer updated.
This is an archive assay for CCRIS mutagenicity studies.

[1] = Test System: AMES SALMONELLA TYPHIMURIUM, Strain/Indicator: TA98, Metabolic Activation: HAMSTER, LIVER, S-9, AROCLOR 1254 (10%), Method: PREINCUBATION
[2] = Test System: AMES SALMONELLA TYPHIMURIUM, Strain/Indicator: TA98, Metabolic Activation: NONE, Method: PREINCUBATION
[3] = Test System: AMES SALMONELLA TYPHIMURIUM, Strain/Indicator: TA98, Metabolic Activation: RAT, LIVER, S-9, AROCLOR 1254 (10%), Method: PREINCUBATION
[4] = Test System: AMES SALMONELLA TYPHIMURIUM, Strain/Indicator: TA100, Metabolic Activation: HAMSTER, LIVER, S-9, AROCLOR 1254 (10%), Method: PREINCUBATION
[5] = Test System: AMES SALMONELLA TYPHIMURIUM, Strain/Indicator: TA100, Metabolic Activation: NONE, Method: PREINCUBATION
[6] = Test System: AMES SALMONELLA TYPHIMURIUM, Strain/Indicator: TA100, Metabolic Activation: RAT, LIVER, S-9, AROCLOR 1254 (10%), Method: PREINCUBATION
[7] = Test System: AMES SALMONELLA TYPHIMURIUM, Strain/Indicator: TA1535, Metabolic Activation: HAMSTER, LIVER, S-9, AROCLOR 1254 (10%), Method: PREINCUBATION
[8] = Test System: AMES SALMONELLA TYPHIMURIUM, Strain/Indicator: TA1535, Metabolic Activation: NONE, Method: PREINCUBATION
[9] = Test System: AMES SALMONELLA TYPHIMURIUM, Strain/Indicator: TA1535, Metabolic Activation: RAT, LIVER, S-9, AROCLOR 1254 (10%), Method: PREINCUBATION
[10] = Test System: AMES SALMONELLA TYPHIMURIUM, Strain/Indicator: TA1537, Metabolic Activation: HAMSTER, LIVER, S-9, AROCLOR 1254 (10%), Method: PREINCUBATION
[11] = Test System: AMES SALMONELLA TYPHIMURIUM, Strain/Indicator: TA1537, Metabolic Activation: NONE, Method: PREINCUBATION
[12] = Test System: AMES SALMONELLA TYPHIMURIUM, Strain/Indicator: TA1537, Metabolic Activation: RAT, LIVER, S-9, AROCLOR 1254 (10%), Method: PREINCUBATION
[13] = Test System: AMES SALMONELLA TYPHIMURIUM, Strain/Indicator: TA100, Metabolic Activation: NONE, Method: STANDARD PLATE

Measured: mutagenic call

CCCCN(CCO)CCCC
inactive: [1] inactive; negative | [2] inactive; negative | [3] inactive; negative | [4] inactive; negative | [5] inactive; negative | [6] inactive; negative | [7] inactive; negative | [8] inactive; negative | [9] inactive; negative | [10] inactive; negative | [11] inactive; negative | [12] inactive; negative

Cc1c(C)c2c3c(ccc2c2ccccc12)[C@@H](O)[C@H](O)[C@@H]1O[C@H]31
active: [13] active; positive

Nc1c(O)cccc1C(=O)O
inactive: [5] inactive; negative

CCn1cc(C(=O)O)c(=O)c2cnc(N3CCNCC3)nc21
inactive: End Point: In vitro micronucleus, Test System: WTK-1 human lymphoma cells, Metabolic Activation: None inactive; negative | [2] inactive; negative | Test System: AMES SALMONELLA TYPHIMURIUM, Strain/Indicator: TA98, Metabolic Activation: RAT LIVER S-9, AROCLOR 1254, Method: PREINCUBATION inactive; negative | [5] inactive; negative | Test System: AMES SALMONELLA TYPHIMURIUM, Strain/Indicator: TA100, Metabolic Activation: RAT LIVER S-9, AROCLOR 1254, Method: PREINCUBATION inactive; negative | Test System: AMES SALMONELLA TYPHIMURIUM, Strain/Indicator: TA104, Metabolic Activation: NONE, Method: PREINCUBATION inactive; negative | Test System: AMES SALMONELLA TYPHIMURIUM, Strain/Indicator: TA104, Metabolic Activation: RAT LIVER S-9, AROCLOR 1254, Method: PREINCUBATION inactive; negative | Test System: AMES SALMONELLA TYPHIMURIUM, Strain/Indicator: UHT8414, Metabolic Activation: NONE, Method: PREINCUBATION inactive; negative | Test System: AMES SALMONELLA TYPHIMURIUM, Strain/Indicator: UHT8414, Metabolic Activation: RAT LIVER S-9, AROCLOR 1254, Method: PREINCUBATION inactive; negative
active: Test System: AMES SALMONELLA TYPHIMURIUM, Strain/Indicator: TA102, Metabolic Activation: RAT LIVER S-9, AROCLOR 1254, Method: PREINCUBATION active; positive

Cc1cc(=O)oc2cc(O)ccc12
inactive: Test System: AMES SALMONELLA TYPHIMURIUM, Strain/Indicator: TA98, Metabolic Activation: HAMSTER, LIVER, S-9, AROCLOR 1254, Method: PREINCUBATION inactive; negative | [2] inactive; negative | Test System: AMES SALMONELLA TYPHIMURIUM, Strain/Indicator: TA98, Metabolic Activation: RAT, LIVER, S-9, AROCLOR 1254, Method: PREINCUBATION inactive; negative | Test System: AMES SALMONELLA TYPHIMURIUM, Strain/Indicator: TA100, Metabolic Activation: HAMSTER, LIVER, S-9, AROCLOR 1254, Method: PREINCUBATION inactive; negative | [5] inactive; negative | Test System: AMES SALMONELLA TYPHIMURIUM, Strain/Indicator: TA100, Metabolic Activation: RAT, LIVER, S-9, AROCLOR 1254, Method: PREINCUBATION inactive; negative | Test System: AMES SALMONELLA TYPHIMURIUM, Strain/Indicator: TA1535, Metabolic Activation: HAMSTER, LIVER, S-9, AROCLOR 1254, Method: PREINCUBATION inactive; negative | [8] inactive; negative | Test System: AMES SALMONELLA TYPHIMURIUM, Strain/Indicator: TA1535, Metabolic Activation: RAT, LIVER, S-9, AROCLOR 1254, Method: PREINCUBATION inactive; negative | Test System: AMES SALMONELLA TYPHIMURIUM, Strain/Indicator: TA1537, Metabolic Activation: HAMSTER, LIVER, S-9, AROCLOR 1254, Method: PREINCUBATION inactive; negative | [11] inactive; negative | Test System: AMES SALMONELLA TYPHIMURIUM, Strain/Indicator: TA1537, Metabolic Activation: RAT, LIVER, S-9, AROCLOR 1254, Method: PREINCUBATION inactive; negative

CC1C(C)(C)C2=C(C(=O)CCC2)C1(C)C (configuration not stated)
inactive: Test System: AMES SALMONELLA TYPHIMURIUM, Strain/Indicator: TA97, Metabolic Activation: NONE, Method: STANDARD PLATE inactive; negative | Test System: AMES SALMONELLA TYPHIMURIUM, Strain/Indicator: TA97, Metabolic Activation: RAT LIVER S-9, AROCLOR 1254, Method: STANDARD PLATE inactive; negative | Test System: AMES SALMONELLA TYPHIMURIUM, Strain/Indicator: TA98, Metabolic Activation: NONE, Method: STANDARD PLATE inactive; negative | Test System: AMES SALMONELLA TYPHIMURIUM, Strain/Indicator: TA98, Metabolic Activation: RAT LIVER S-9, AROCLOR 1254, Method: STANDARD PLATE inactive; negative | [13] inactive; negative | Test System: AMES SALMONELLA TYPHIMURIUM, Strain/Indicator: TA100, Metabolic Activation: RAT LIVER S-9, AROCLOR 1254, Method: STANDARD PLATE inactive; negative | Test System: AMES SALMONELLA TYPHIMURIUM, Strain/Indicator: TA102, Metabolic Activation: NONE, Method: STANDARD PLATE inactive; negative | Test System: AMES SALMONELLA TYPHIMURIUM, Strain/Indicator: TA102, Metabolic Activation: RAT LIVER S-9, AROCLOR 1254, Method: STANDARD PLATE inactive; negative

C/C=C(\C)C=O
inactive: Test System: MOUSE LYMPHOMA, Strain/Indicator: L5178Y (TK+/TK-), Metabolic Activation: RAT, LIVER, S-9, AROCLOR 1254, Method: SUSPENSION/PLATE inactive; negative. reevaluation of results: negative
active: Test System: MOUSE LYMPHOMA, Strain/Indicator: L5178Y (TK+/TK-), Metabolic Activation: NONE, Method: SUSPENSION/PLATE active; positive. reevaluation of results: inconclusive

O=c1nc(O)n(Cl)c(=O)n1Cl
inactive: [1] inactive; negative | [2] inactive; negative | [3] inactive; negative | [4] inactive; negative | [5] inactive; negative | [6] inactive; negative | [7] inactive; negative | [8] inactive; negative | [9] inactive; negative | [10] inactive; negative | [11] inactive; negative | [12] inactive; negative

Cc1cc2nccnc2c2nc(N)n(C)c12
active: Test System: AMES SALMONELLA TYPHIMURIUM, Strain/Indicator: TA98, Metabolic Activation: RAT, LIVER, S-9, AROCLOR 1254, Method: STANDARD PLATE active; positive

C/C=C1\C[C@@H](C)[C@](C)(OC(C)=O)C(=O)OC/C2=C/CN(C)CC[C@@H](OC1=O)C2=O
active: Test System: AMES SALMONELLA TYPHIMURIUM, Strain/Indicator: TA100, Metabolic Activation: RAT, LIVER, S-9, PCB, Method: PREINCUBATION active; positive | Test System: UDS RAT HEPATOCYTES, Strain/Indicator: THY INCORP, Metabolic Activation: NONE, Method: AUTORADIOGRAPHY active; positive
inactive: Test System: AMES SALMONELLA TYPHIMURIUM, Strain/Indicator: TA100, Metabolic Activation: HAMSTER, LIVER, S-9, PCB, Method: PREINCUBATION inactive; negative; by authors criteria results are positive
